Reference: US20040044060A1, “Fungicidal mixture” (priority 2001, published 2004)

Test system: Plasmopara viticola
Assay: Protective activity against peronospora of vines caused by Plasmopara viticola (potted vines, spray treatment)
Assay type: in vivo
Details: individual active compound, vine leaves cv. Müller-Thurgau, untreated 75% infection
Protocol: The active compounds, separately or jointly, were formulated as a 10% emulsion in a mixture of 63% by weight of cyclohexanone and 27% by weight of emulsifier, and diluted with water to the desired concentration.
Evaluation was carried out by determining the infected leaf areas in percent. These percentages were converted into efficacies. The efficacy (W) was calculated as follows using Abbot's formula: […]
α corresponds to the fungal infection of the treated plants in % and β corresponds to the fungal infection of the untreated (control) plants in % An efficacy of 0 means that the infection level of the treated plants corresponds to that of the untreated control plants; an efficacy of 100 means that the treated plants were not infected.
The expected efficacies of the mixtures of the active compounds were determined using Colby's formula [R. S. Colby, Weeds 15, 20-22 (1967)] and compared with the observed efficacies.
E=x+y−x·y/100 Colby's formula: […]
E expected efficacy, expressed in % of the untreated control, when using the mixture of the active compounds A and B at the concentrations a and b x efficacy, expressed in % of the untreated control, when using active compound A at a concentration of a y efficacy, expressed in % of the untreated control, when using active compound B at a concentration of b.
Protective Activity Against peronospora vines Caused by Plasmopara viticola Leaves of potted vines of the cultivar “Müller-Thurgau” were sprayed to runoff point with an aqueous preparation of active compound which had been prepared from a stock solution comprising 10% of active compound, 85% of cyclohexanone and 5% of emulsifier. The next day, the undersides of the leaves were inoculated with an aqueous zoospore suspension of Plasmopara viticola. The vines were then initially placed in a water-vapor-saturated chamber at 24° C. for 48 hours and then in a greenhouse at 20-30° C. for 5 days. […] The extent to which the infection had developed on the undersides of the leaves was then determined visually.

SMILES: Cc1ccc(-c2c(Cl)nc(C#N)n2S(=O)(=O)N(C)C)cc1 [Ia, cyazofamid]
- Efficacy in % of the untreated control (0.05 ppm in the spray liquor): 47%
- Efficacy in % of the untreated control (0.1 ppm in the spray liquor): 73%
- Efficacy in % of the untreated control (0.2 ppm in the spray liquor): 87%
